Measured values reported in ChEMBL document CHEMBL5137053 (J Med Chem, 2022).

Assay: Binding affinity to NL63-CoV main protease by FRET assay
Design: species or system Human coronavirus NL63

Compound: CC(C)(C)[C@H](NC(=O)C(F)(F)F)C(=O)N1C[C@H]2[C@@H]([C@H]1C(=O)N[C@H](C#N)C[C@@H]1CCNC1=O)C2(C)C
- Ki: 226 nM
